Results reported in DBAASP.
In brackets after ≈: the same amount, converted by molar mass. Each block holds one molecule with its values, some of them ahead of it.

Assays:
Experiment in all cases: ≥ marks a high value that may be exact or a test limit, other limits are often not marked, values filed in µg/mL are converted to µM
Candida albicans SC5314 = system: Candida albicans SC5314
[1] = system: Candida parapsilosis ATCC 22019
[2] = system: Candida albicans ATCC 90028
Candida krusei ATCC 6258 = system: Candida krusei ATCC 6258
[3] = system: Staphylococcus aureus ATCC 29213
[4] = system: Pseudomonas aeruginosa ATCC 15442
[5] = system: Staphylococcus aureus ATCC 25923
[6] = system: Staphylococcus aureus ATCC 6538
[7] = system: Staphylococcus epidermidis RP62A
[8] = system: Bacillus subtilis KCTC 1998
[9] = system: Pseudomonas aeruginosa ATCC 15692
[10] = system: Escherichia coli ATCC 25922
[11] = system: Pseudomonas aeruginosa ATCC 27853
[12] = system: Staphylococcus aureus ATCC 33591
[13] = system: Enterococcus faecium ATCC 700221
Staphylococcus aureus = system: Staphylococcus aureus
Citrobacter sp. = system: Citrobacter sp.
Klebsiella pneumoniae = system: Klebsiella pneumoniae
[14] = system: Acinetobacter baumannii ATCC 15308
Enterobacter cloacae = system: Enterobacter cloacae
Streptococcus pneumoniae = system: Streptococcus pneumoniae
[15] = system: Klebsiella pneumoniae ATCC 700603
[16] = system: Acinetobacter baumannii ATCC BAA-1605
[17] = system: Enterococcus faecalis KCTC 2011
[18] = system: Salmonella typhimurium KCTC 1926
[19] = system: Acinetobacter baumannii CCARM 12035
[20] = system: Salmonella typhimurium CCARM 8009
[21] = system: Pseudomonas aeruginosa CCARM 2095
[22] = system: Bacillus subtilis KCTC 3068
[23] = system: Escherichia coli KCTC 1682
[24] = system: Pseudomonas aeruginosa KCTC 1637
[25] = system: Staphylococcus aureus KCTC 1621
[26] = system: Escherichia coli CCARM 1229

SMILES: CC[C@H](C)[C@H](NC(=O)[C@@H](N)CCC(=O)O)C(=O)N[C@@H](CCC(=O)O)C(=O)N[C@@H](CCCCN)C(=O)N[C@@H](Cc1ccccc1)C(=O)N[C@@H](CC(=O)O)C(=O)N[C@@H](CCCCN)C(=O)N[C@@H](CO)C(=O)N[C@@H](CCCCN)C(=O)N[C@@H](CC(C)C)C(=O)N[C@@H](CCCCN)C(=O)O [EIEKFDKSKLK]
MIC [3]: 4540 µM (≈ 6200 µg/mL) | MIC [4]: ≥ 9160 µM | MIC [5]: 9160 µM (≈ 12500 µg/mL) | MIC [6]: 9160 µM (≈ 12500 µg/mL) | MIC [7]: ≥ 9160 µM

SMILES: CC[C@H](C)[C@H](NC(=O)[C@H](CCCCN)NC(=O)[C@H](CO)NC(=O)[C@@H]1CCCN1C(=O)[C@H](CC(C)C)NC(=O)[C@H](CCCCN)NC(=O)[C@@H]1CCCN1C(=O)[C@H](CC(C)C)NC(=O)[C@H](CCCN=C(N)N)NC(=O)[C@H](CCCCN)NC(=O)[C@H](Cc1ccccc1)NC(=O)[C@@H](NC(=O)[C@H](CCCCN)NC(=O)[C@H](CCCCN)NC(=O)[C@H](C)N)C(C)C)C(=O)N[C@@H](Cc1c[nH]c2ccccc12)C(=O)N[C@@H](CC(N)=O)C(=O)N[C@@H](Cc1c[nH]c2ccccc12)C(=O)N[C@@H](CCCCN)C(N)=O [AKKVFKRLPKLPSKIWNWK]
MIC [8]: 1 µM (≈ 2.37 µg/mL) | MIC [9]: 2 µM (≈ 4.73 µg/mL) | MIC [10]: 2 µM (≈ 4.73 µg/mL) | MIC [5]: 8 µM (≈ 18.9 µg/mL)

SMILES: CC(C)C[C@H](NC(=O)[C@H](CCCCN)NC(=O)[C@H](CO)NC(=O)[C@H](CCCCN)NC(=O)[C@H](CC(=O)O)NC(=O)[C@H](Cc1ccccc1)NC(=O)[C@H](CO)NC(=O)[C@H](C)NC(=O)[C@@H](NC(=O)[C@@H](N)CCC(=O)O)C(C)C)C(=O)N[C@@H](CCCCN)C(=O)O [EVASFDKSKLK]
MIC [3]: 9990 µM (≈ 12500 µg/mL) | MIC [4]: ≥ 9990 µM | MIC [5]: 9990 µM (≈ 12500 µg/mL) | MIC [6]: 9990 µM (≈ 12500 µg/mL) | MIC [7]: ≥ 4950 µM

SMILES: CC(C)[C@H](NC(=O)[C@H](C)N)C(=O)N[C@@H](C)C(=O)N[C@H](C(=O)N[C@H](C(=O)NCC(=O)N[C@@H](CCC(N)=O)C(=O)N[C@@H](C)C(=O)N[C@@H](C)C(=O)N[C@H](C(=O)N[C@H](C(=O)N[C@H](C(=O)N[C@@H](CCCCN)C(N)=O)C(C)C)C(C)C)[C@@H](C)O)C(C)C)C(C)C [AVAVVGQAATVVK]
MIC [17]: ≥ 128 µM | MIC [18]: ≥ 128 µM | MIC [19]: ≥ 128 µM | MIC [20]: ≥ 128 µM | MIC [21]: ≥ 128 µM | MIC [22]: ≥ 128 µM | MIC [23]: ≥ 128 µM | MIC [24]: ≥ 128 µM | MIC [25]: ≥ 128 µM | MIC [26]: ≥ 128 µM

Next, values leading:

MIC (Candida albicans SC5314): 13.6 µM (≈ 32 µg/mL) | MIC [1]: 13.6 µM (≈ 32 µg/mL) | MIC [2]: 27.1 µM (≈ 64 µg/mL) | MIC (Candida krusei ATCC 6258): 6.79 µM (≈ 16 µg/mL)
SMILES: CC[C@H](C)[C@H](NC(=O)CN)C(=O)N[C@@H](Cc1c[nH]c2ccccc12)C(=O)N[C@@H](CCCCN)C(=O)N[C@@H](CCCCN)C(=O)N[C@@H](Cc1c[nH]c2ccccc12)C(=O)N[C@H](C(=O)N[C@@H](CCCCN)C(=O)N[C@@H](CCCCN)C(=O)N[C@@H](Cc1c[nH]c2ccccc12)C(=O)N[C@@H](CC(C)C)C(=O)N[C@@H](CCCCN)C(=O)N[C@@H](CCCCN)C(=O)N[C@@H](CC(C)C)C(=O)N[C@@H](CCCCN)C(=O)N[C@@H](CC(N)=O)C(=O)N[C@@H](CC(C)C)C(=O)N[C@@H](Cc1ccccc1)C(N)=O)[C@@H](C)CC [GIWKKWIKKWLKKLKNLF]

MIC [11]: 12.5 µM (≈ 22.7 µg/mL) | MIC [10]: 3.1 µM (≈ 5.62 µg/mL) | MIC [12]: 3.1 µM (≈ 5.62 µg/mL) | MIC [13]: 1.6 µM (≈ 2.9 µg/mL)
SMILES: CC[C@H](C)[C@H](NC(=O)[C@H](CCCCN)NC(=O)[C@H](CCCCN)NC(=O)[C@H](CC(C)C)NC(=O)[C@H](CC(C)C)NC(=O)[C@H](CCCCN)NC(=O)[C@H](CCCCN)NC(=O)[C@@H](NC(=O)[C@@H](NC(=O)[C@H](CC(=O)O)NC(=O)[C@H](Cc1ccccc1)NC(=O)[C@H](CC(C)C)NC(=O)CN)C(C)C)[C@@H](C)CC)C(=O)N[C@@H](CCCCN)C(=O)NCC(=O)N[C@@H](CC(C)C)C(N)=O [GLFDVIKKLLKKIKGL]

MIC (Staphylococcus aureus): 130 µM (≈ 250 µg/mL) | MIC (Citrobacter sp.): ≥ 130 µM | MIC (Klebsiella pneumoniae): > 130 µM | MIC [14]: ≥ 130 µM | MIC (Enterobacter cloacae): ≥ 130 µM | MIC (Streptococcus pneumoniae): ≥ 130 µM | MIC [10]: 130 µM (≈ 250 µg/mL) | MIC [4]: ≥ 65.2 µM | MIC [5]: 65.2 µM (≈ 125 µg/mL)
SMILES: CC(C)C[C@H](NC(=O)[C@@H](N)CCCN=C(N)N)C(=O)N1CCC[C@H]1C(=O)N[C@@H](Cc1c[nH]c2ccccc12)C(=O)N[C@@H](CCCN=C(N)N)C(=O)N[C@@H](Cc1c[nH]c2ccccc12)C(=O)N1CCC[C@H]1C(=O)N[C@@H](CCCN=C(N)N)C(=O)N[C@@H](CCCN=C(N)N)C(=O)N1CCC[C@H]1C(=O)N[C@@H](Cc1c[nH]c2ccccc12)C(=O)N[C@@H](CCCN=C(N)N)C(=O)N[C@@H](CCCN=C(N)N)C(N)=O [RLPWRWPRRPWRR]

MIC [15]: 93 µM (≈ 137 µg/mL) | MIC [11]: 93 µM (≈ 137 µg/mL) | MIC [10]: 186 µM (≈ 275 µg/mL) | MIC [12]: ≥ 93 µM | MIC [16]: ≥ 46.7 µM | MIC [13]: ≥ 186 µM
SMILES: CC[C@H](C)[C@H](NC(=O)[C@H](CCCN=C(N)N)NC(=O)[C@H](CCCCN)NC(=O)[C@H](Cc1ccccc1)NC(=O)[C@H](CC(C)C)NC(=O)[C@H](CCCCN)NC(=O)[C@@H](N)CCCN=C(N)N)C(=O)N[C@@H](CC(C)C)C(=O)N[C@@H](CCCCN)C(=O)N[C@@H](Cc1ccc(O)cc1)C(=O)N[C@@H](CC(C)C)C(N)=O [RKLFKRILKYL]

MIC (Staphylococcus aureus): > 113 µM | MIC (Citrobacter sp.): ≥ 113 µM | MIC (Klebsiella pneumoniae): > 113 µM | MIC [14]: ≥ 113 µM | MIC (Enterobacter cloacae): ≥ 113 µM | MIC (Streptococcus pneumoniae): ≥ 113 µM | MIC [10]: > 113 µM | MIC [4]: ≥ 113 µM | MIC [5]: > 113 µM
SMILES: CC[C@H](C)[C@H](NC(=O)[C@H](CCSC)NC(=O)[C@H](C)NC(=O)[C@@H]1CCCN1C(=O)[C@@H](NC(=O)[C@H](CCCN=C(N)N)NC(=O)[C@H](CCCCN)NC(=O)[C@@H](NC(=O)[C@H](CC(C)C)NC(=O)CNC(=O)CNC(=O)[C@H](CC(C)C)NC(=O)[C@@H](N)Cc1ccccc1)[C@@H](C)CC)C(C)C)C(=O)N[C@H]1CSSC[C@@H](C(=O)O)NC(=O)[C@H](CCCCN)NC(=O)[C@H](CCCCN)NC(=O)[C@H](CCCN=C(N)N)NC(=O)[C@H](C(C)C)NC(=O)[C@H](C)NC1=O [FLGGLIKRVPAMICAVRKKC]
